These results are taken from PubChem BioAssay AID256 (DTP/NCI, 2004).

This test has as its system CD2F1 mice, L1210 leukemia ip, survival T/C. Description: NCI In Vivo Anticancer Drug Screen. Data for tumor model L1210 Leukemia (intraperitoneal) in CD2F1 (CDF1) mice. As to conditions: higher = longer survival. Summed up: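 In this screen, transplantable tumors were grown in mice given either the compound or its vehicle. Results were expressed as the treated measurement relative to the control measurement.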

Values joined by “and” are separate entries in the source; they are usually repeats but may differ in a detail not shown here. Equal values may be shown once. Inconclusive results and toxic doses are left out.

In the case of `COc1cccc2c1C(=O)c1c(O)c3c(c(O)c1C2=O)C[C@@](O)(/C(C)=N/NC(=O)c1ccccc1)C[C@@H]3OC1CC(N)C(O)C(C)O1` (some centres undefined), the T/C is, setting by setting: (endpoint: mean survival time, dose: 0.5 mg/kg/injection, schedule: Q04DX003 (ip), vehicle: water) 91 % of control; (endpoint: mean survival time, dose: 0.65 mg/kg/injection, schedule: Q01DX009 (ip), vehicle: saline) 117 % of control; (endpoint: mean survival time, dose: 1.0 mg/kg/injection, schedule: Q01DX009 (ip), vehicle: water) 107 % of control; (endpoint: mean survival time, dose: 1.0 mg/kg/injection, schedule: Q04DX003 (ip), vehicle: water) 91 % of control; (endpoint: mean survival time, dose: 1.08 mg/kg/injection, schedule: Q01DX009 (ip), vehicle: saline) 120 % of control; (endpoint: mean survival time, dose: 2.0 mg/kg/injection, schedule: Q01DX009 (ip), vehicle: water) 113 % of control. The T/C (endpoint: mean survival time, dose: 2.0 mg/kg/injection, schedule: Q04DX003 (ip), vehicle: water) was 96 % of control; the T/C (endpoint: mean survival time, dose: 3.0 mg/kg/injection, schedule: Q01DX009 (ip), vehicle: saline) was 150 % of control; the T/C (endpoint: mean survival time, dose: 3.0 mg/kg/injection, schedule: Q04DX003 (ip), vehicle: saline) was 160 % of control; the T/C (endpoint: mean survival time, dose: 4.0 mg/kg/injection, schedule: Q01DX009 (ip), vehicle: water) was 120 % of control; the T/C (endpoint: mean survival time, dose: 4.0 mg/kg/injection, schedule: Q04DX003 (ip), vehicle: water) was 105 % of control; the T/C (endpoint: mean survival time, dose: 5.0 mg/kg/injection, schedule: Q04DX003 (ip), vehicle: saline) is 163 % of control. The T/C (endpoint: mean survival time, dose: 8.0 mg/kg/injection, schedule: Q01DX009 (ip), vehicle: saline) was 110 % of control; the T/C (endpoint: mean survival time, dose: 8.0 mg/kg/injection, schedule: Q04DX003 (ip), vehicle: water) is 124 % of control; the T/C (endpoint: mean survival time, dose: 22.2 mg/kg/injection, schedule: Q04DX003 (ip), vehicle: saline) is 103 % of control; the T/C (endpoint: median survival time, dose: 0.13 mg/kg/injection, schedule: Q03HX008 (ip), vehicle: water) is 106 % of control; the T/C (endpoint: median survival time, dose: 0.13 mg/kg/injection, schedule: Q03HX016 (ip), vehicle: water) was 97 % of control; the T/C (endpoint: median survival time, dose: 0.13 mg/kg/injection, schedule: Q03HX024 (ip), vehicle: water) was 106 % of control. Also, the T/C was 107 % of control (endpoint: median survival time, dose: 0.25 mg/kg/injection, schedule: Q03HX008 (ip), vehicle: water); 104 % of control (endpoint: median survival time, dose: 0.25 mg/kg/injection, schedule: Q03HX016 (ip), vehicle: water); 112 % of control (endpoint: median survival time, dose: 0.25 mg/kg/injection, schedule: Q03HX024 (ip), vehicle: water); 105 % of control (endpoint: median survival time, dose: 0.5 mg/kg/injection, schedule: Q01DX009 (ip), vehicle: water); 101 % of control (endpoint: median survival time, dose: 0.5 mg/kg/injection, schedule: Q01DX009 (sc), vehicle: water); 114 % of control (endpoint: median survival time, dose: 0.5 mg/kg/injection, schedule: Q03HX008 (ip), vehicle: water). The T/C (endpoint: median survival time, dose: 0.5 mg/kg/injection, schedule: Q03HX016 (ip), vehicle: water) was 105 % of control; the T/C (endpoint: median survival time, dose: 0.5 mg/kg/injection, schedule: Q03HX024 (ip), vehicle: water) is 115 % of control; the T/C (endpoint: median survival time, dose: 0.5 mg/kg/injection, schedule: Q04DX003 (ip), vehicle: water) was 100 % of control; the T/C (endpoint: median survival time, dose: 1.0 mg/kg/injection, schedule: Q01DX001 (ip), vehicle: water) is 98 % of control; the T/C (endpoint: median survival time, dose: 1.0 mg/kg/injection, schedule: Q01DX001 (sc), vehicle: water) was 96 % of control; the T/C (endpoint: median survival time, dose: 1.0 mg/kg/injection, schedule: Q01DX009 (ip), vehicle: water) was 106 % of control. For the same compound, the T/C is, setting by setting: (endpoint: median survival time, dose: 1.0 mg/kg/injection, schedule: Q01DX009 (sc), vehicle: water) 97 % of control; (endpoint: median survival time, dose: 1.0 mg/kg/injection, schedule: Q03HX008 (ip), vehicle: water) 118 % of control; (endpoint: median survival time, dose: 1.0 mg/kg/injection, schedule: Q03HX016 (ip), vehicle: water) 109 % of control; (endpoint: median survival time, dose: 1.0 mg/kg/injection, schedule: Q04DX003 (ip), vehicle: water) 116 % of control and 111 % of control; (endpoint: median survival time, dose: 1.0 mg/kg/injection, schedule: Q08DX002 (ip), vehicle: water) 107 % of control; (endpoint: median survival time, dose: 2.0 mg/kg/injection, schedule: Q01DX001 (ip), vehicle: water) 105 % of control. Also, the T/C by setting is: (endpoint: median survival time, dose: 2.0 mg/kg/injection, schedule: Q01DX001 (sc), vehicle: water) 102 % of control; (endpoint: median survival time, dose: 2.0 mg/kg/injection, schedule: Q01DX009 (ip), vehicle: water) 116 % of control; (endpoint: median survival time, dose: 2.0 mg/kg/injection, schedule: Q01DX009 (sc), vehicle: water) 97 % of control; (endpoint: median survival time, dose: 2.0 mg/kg/injection, schedule: Q04DX003 (ip), vehicle: water) 103 % of control and 112 % of control; (endpoint: median survival time, dose: 2.0 mg/kg/injection, schedule: Q08DX002 (ip), vehicle: water) 107 % of control; (endpoint: median survival time, dose: 4.0 mg/kg/injection, schedule: Q01DX001 (ip), vehicle: water) 113 % of control. Besides, the T/C is, setting by setting: (endpoint: median survival time, dose: 4.0 mg/kg/injection, schedule: Q01DX001 (sc), vehicle: water) 98 % of control; (endpoint: median survival time, dose: 4.0 mg/kg/injection, schedule: Q01DX009 (oral), vehicle: water) 98 % of control; (endpoint: median survival time, dose: 4.0 mg/kg/injection, schedule: Q01DX009 (sc), vehicle: water) 97 % of control; (endpoint: median survival time, dose: 4.0 mg/kg/injection, schedule: Q03HX016 (ip), vehicle: water) 124 % of control; (endpoint: median survival time, dose: 4.0 mg/kg/injection, schedule: Q03HX024 (ip), vehicle: water) 104 % of control; (endpoint: median survival time, dose: 4.0 mg/kg/injection, schedule: Q04DX003 (ip), vehicle: water) 124 % of control. The T/C was 113 % of control (endpoint: median survival time, dose: 4.0 mg/kg/injection, schedule: Q08DX002 (ip), vehicle: water); 117 % of control (endpoint: median survival time, dose: 8.0 mg/kg/injection, schedule: Q01DX001 (ip), vehicle: water); 98 % of control (endpoint: median survival time, dose: 8.0 mg/kg/injection, schedule: Q01DX001 (sc), vehicle: water); 95 % of control (endpoint: median survival time, dose: 8.0 mg/kg/injection, schedule: Q01DX009 (oral), vehicle: water); 103 % of control (endpoint: median survival time, dose: 8.0 mg/kg/injection, schedule: Q01DX009 (sc), vehicle: water); 124 % of control (endpoint: median survival time, dose: 8.0 mg/kg/injection, schedule: Q08DX002 (ip), vehicle: water). Also, the T/C runs as follows: (endpoint: median survival time, dose: 16.0 mg/kg/injection, schedule: Q01DX001 (oral), vehicle: water) 97 % of control; (endpoint: median survival time, dose: 16.0 mg/kg/injection, schedule: Q01DX001 (sc), vehicle: water) 97 % of control; (endpoint: median survival time, dose: 16.0 mg/kg/injection, schedule: Q01DX009 (oral), vehicle: water) 97 % of control; (endpoint: median survival time, dose: 16.0 mg/kg/injection, schedule: Q01DX009 (sc), vehicle: water) 108 % of control; (endpoint: median survival time, dose: 16.0 mg/kg/injection, schedule: Q04DX003 (ip), vehicle: water) 124 % of control; (endpoint: median survival time, dose: 32.0 mg/kg/injection, schedule: Q01DX001 (ip), vehicle: water) 155 % of control. Moreover, the T/C runs as follows: (endpoint: median survival time, dose: 32.0 mg/kg/injection, schedule: Q01DX001 (oral), vehicle: water) 96 % of control; (endpoint: median survival time, dose: 32.0 mg/kg/injection, schedule: Q01DX001 (sc), vehicle: water) 108 % of control; (endpoint: median survival time, dose: 32.0 mg/kg/injection, schedule: Q04DX003 (ip), vehicle: water) 106 % of control; (endpoint: median survival time, dose: 64.0 mg/kg/injection, schedule: Q01DX001 (oral), vehicle: water) 103 % of control; (endpoint: median survival time, dose: 128.0 mg/kg/injection, schedule: Q01DX001 (oral), vehicle: water) 102 % of control; (endpoint: median survival time, dose: 256.0 mg/kg/injection, schedule: Q01DX001 (oral), vehicle: water) 102 % of control.
For the compound `O=C1c2ccccc2C(C(O)(C(F)(F)F)C(F)(F)F)c2ccccc21`, the T/C was 100 % of control (endpoint: mean survival time, dose: 12.5 mg/kg/injection, schedule: Q01DX009 (ip), vehicle: saline with Tween-80); 98 % of control (endpoint: mean survival time, dose: 25.0 mg/kg/injection, schedule: Q01DX009 (ip), vehicle: saline with Tween-80); 96 % of control (endpoint: mean survival time, dose: 50.0 mg/kg/injection, schedule: Q01DX009 (ip), vehicle: saline with Tween-80).
On to `ClCc1ccc(CCl)cc1`, for which the T/C is 98 % of control (endpoint: mean survival time, dose: 25.0 mg/kg/injection, schedule: Q04DX003 (ip), vehicle: Klucel (hydroxypropylcellulose) (HPC)); 105 % of control (endpoint: mean survival time, dose: 50.0 mg/kg/injection, schedule: Q04DX003 (ip), vehicle: Klucel (hydroxypropylcellulose) (HPC)); 89 % of control (endpoint: mean survival time, dose: 100.0 mg/kg/injection, schedule: Q04DX003 (ip), vehicle: Klucel (hydroxypropylcellulose) (HPC)).
For `CCOC(=O)Nc1cc2c(c(N)n1)N=C(CN(C)c1ccccc1)CN2`, the T/C is 110 % of control (endpoint: mean survival time, dose: 6.25 mg/kg/injection, schedule: Q01DX009 (ip), vehicle: Klucel (hydroxypropylcellulose) (HPC)) and 87 % of control (endpoint: mean survival time, dose: 12.5 mg/kg/injection, schedule: Q01DX009 (ip), vehicle: Klucel (hydroxypropylcellulose) (HPC)).
